Test results: ChEMBL document CHEMBL5053515, “Insights into Ergochromes of the Plant Pathogen Claviceps purpurea” (J Nat Prod, 2021)
Active and inactive are the calls of the source. No cut-off for these calls is given here.

Key:
HepG2 [1] = assay: Cytotoxicity against human HepG2 cells assessed as reduction in cell viability measured at 48 hrs by resazurin reagent based assay; type: functional; conditions: HepG2, 48 h
CCF-STTG1 = assay: Cytotoxicity against human CCF-STTG1 cells assessed as reduction in cell viability measured at 48 hrs by resazurin reagent based assay; type: functional; conditions: CCF-STTG1, 48 h
[2] = target: DNA topoisomerase 2-alpha (Homo sapiens) (UniProt P11388); assay: Inhibition of human topoisomerase 2a assessed as reduction in decatenation of kinetoplast DNA at 25 uM using kinetoplast DNA as substrate incubated for 2 hrs by ethidium bromide staining based agarose gel electrophoresis method relative to control
Sequence of DNA topoisomerase 2-alpha (Homo sapiens) (P11388 whole entry): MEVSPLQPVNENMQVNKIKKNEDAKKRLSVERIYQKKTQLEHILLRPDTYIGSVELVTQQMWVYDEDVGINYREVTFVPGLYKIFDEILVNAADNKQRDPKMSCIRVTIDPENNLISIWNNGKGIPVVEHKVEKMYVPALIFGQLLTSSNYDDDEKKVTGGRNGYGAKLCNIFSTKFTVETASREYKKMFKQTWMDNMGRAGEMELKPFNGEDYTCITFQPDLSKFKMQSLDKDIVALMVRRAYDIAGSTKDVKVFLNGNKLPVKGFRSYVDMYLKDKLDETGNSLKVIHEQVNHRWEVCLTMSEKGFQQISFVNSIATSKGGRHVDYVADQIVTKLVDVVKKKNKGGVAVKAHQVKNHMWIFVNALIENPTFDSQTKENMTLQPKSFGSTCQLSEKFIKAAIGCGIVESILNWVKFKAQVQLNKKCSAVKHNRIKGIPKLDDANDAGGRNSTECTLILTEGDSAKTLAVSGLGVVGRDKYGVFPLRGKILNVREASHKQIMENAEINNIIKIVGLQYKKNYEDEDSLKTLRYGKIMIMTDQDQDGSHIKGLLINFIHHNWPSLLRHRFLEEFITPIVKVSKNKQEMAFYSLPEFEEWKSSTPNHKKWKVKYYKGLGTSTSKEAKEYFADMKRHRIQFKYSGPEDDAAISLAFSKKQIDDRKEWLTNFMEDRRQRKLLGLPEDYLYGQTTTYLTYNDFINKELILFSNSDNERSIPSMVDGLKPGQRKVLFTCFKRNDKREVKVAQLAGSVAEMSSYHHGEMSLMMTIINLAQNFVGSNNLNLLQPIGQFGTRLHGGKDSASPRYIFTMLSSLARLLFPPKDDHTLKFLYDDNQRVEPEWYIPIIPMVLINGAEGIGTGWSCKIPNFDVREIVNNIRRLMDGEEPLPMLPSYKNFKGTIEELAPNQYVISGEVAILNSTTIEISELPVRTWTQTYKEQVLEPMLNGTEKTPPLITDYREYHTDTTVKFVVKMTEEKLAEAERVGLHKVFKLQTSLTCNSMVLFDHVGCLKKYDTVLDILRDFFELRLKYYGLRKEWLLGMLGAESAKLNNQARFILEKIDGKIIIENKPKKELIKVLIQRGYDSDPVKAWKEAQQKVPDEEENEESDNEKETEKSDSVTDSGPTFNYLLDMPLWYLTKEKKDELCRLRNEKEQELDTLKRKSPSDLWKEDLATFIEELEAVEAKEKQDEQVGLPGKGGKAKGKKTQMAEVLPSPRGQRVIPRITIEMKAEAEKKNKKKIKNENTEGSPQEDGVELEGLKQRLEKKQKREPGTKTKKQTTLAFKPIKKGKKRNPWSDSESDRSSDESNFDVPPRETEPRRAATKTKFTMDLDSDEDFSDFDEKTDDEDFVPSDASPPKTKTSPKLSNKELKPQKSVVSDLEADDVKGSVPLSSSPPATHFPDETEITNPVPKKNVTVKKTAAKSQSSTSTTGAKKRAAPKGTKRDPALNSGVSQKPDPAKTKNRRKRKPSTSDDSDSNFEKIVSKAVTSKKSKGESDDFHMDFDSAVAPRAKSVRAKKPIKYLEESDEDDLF

[3] = target: T1, DNA topoisomerase 1 (Homo sapiens) (UniProt P11387); assay: Inhibition of topoisomerase 1 (unknown origin) assessed as relaxation of supercoiled plasmid pUC18 measured after 30 mins by ethidium bromide staining based agarose gel electrophoresis
T1 sequence (whole entry): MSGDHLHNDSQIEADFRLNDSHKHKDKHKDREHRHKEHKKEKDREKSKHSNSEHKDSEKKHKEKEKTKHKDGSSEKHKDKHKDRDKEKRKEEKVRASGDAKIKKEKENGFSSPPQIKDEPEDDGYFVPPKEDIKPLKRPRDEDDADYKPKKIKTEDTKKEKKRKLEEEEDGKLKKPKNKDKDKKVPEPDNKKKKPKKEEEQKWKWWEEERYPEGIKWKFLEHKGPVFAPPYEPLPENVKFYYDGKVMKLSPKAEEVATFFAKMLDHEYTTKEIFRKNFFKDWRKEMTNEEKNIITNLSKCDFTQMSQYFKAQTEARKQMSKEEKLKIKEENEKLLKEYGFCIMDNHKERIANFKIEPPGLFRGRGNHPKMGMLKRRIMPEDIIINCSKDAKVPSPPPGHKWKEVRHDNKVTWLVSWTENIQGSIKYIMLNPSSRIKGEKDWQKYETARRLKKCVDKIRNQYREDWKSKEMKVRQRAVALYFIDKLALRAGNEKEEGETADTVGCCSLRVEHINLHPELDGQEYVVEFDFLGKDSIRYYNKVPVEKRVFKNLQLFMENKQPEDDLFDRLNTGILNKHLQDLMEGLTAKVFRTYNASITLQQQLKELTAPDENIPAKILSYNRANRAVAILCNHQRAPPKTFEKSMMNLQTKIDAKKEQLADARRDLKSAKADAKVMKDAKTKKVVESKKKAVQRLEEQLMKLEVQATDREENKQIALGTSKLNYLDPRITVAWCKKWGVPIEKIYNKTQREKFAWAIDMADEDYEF

HepG2 [4] = assay: Cytotoxicity against human HepG2 cells assessed as reduction in cell viability at up to 100 uM measured at 48 hrs by resazurin reagent based assay; type: functional
[5] = target: T1, DNA topoisomerase 1 (Homo sapiens); assay: Inhibition of topoisomerase 1 (unknown origin) assessed as relaxation of supercoiled plasmid pUC18 DNA at 100 uM measured after 30 mins by ethidium bromide staining based agarose gel electrophoresis relative to control
HepG2 [6] = assay: Cytotoxicity against human HepG2 cells assessed as reduction in cell viability at 100 uM measured at 48 hrs by resazurin reagent based assay relative to control; type: functional

`COC(=O)[C@]12Oc3ccc(-c4ccc(O)c5c4O[C@@]4(C(=O)OC)C(=C(O)C[C@@H](C)[C@@H]4O)C5=O)c(O)c3C(=O)C1=C(O)C[C@@H](C)[C@@H]2O` showed an IC50 (HepG2 [1]) of 900 nM and an IC50 (CCF-STTG1) of 1000 nM.

For `COC(=O)[C@@]1(C(O)C(C)CC(=O)O)CC(=O)c2c(ccc(-c3ccc4c(c3O)C(=O)C3(O)C(O)C[C@@H](C)[C@H](O)[C@@]3(C(=O)O)O4)c2O)O1` (stereo partly specified), the inhibition [2] was “inactive”, the inhibition [3] was “inactive” and the IC50 (CCF-STTG1) was 7500 nM.

In the case of `COC(=O)[C@]12Oc3c(-c4ccc(O)c5c4O[C@@]4(C(=O)OC)C(=C(O)C[C@@H](C)[C@@H]4O)C5=O)ccc(O)c3C(=O)C1=C(O)C[C@@H](C)[C@@H]2O`, the IC50 (HepG2 [1]) is reported as 900 nM and the IC50 (CCF-STTG1) is reported as 1000 nM.

In the case of `Cc1cc2c(c(O)c1C(=O)O)C(=O)c1c(O)cc(O)cc1C2=O`, the Activity (HepG2 [4]) is reported as “inactive”.

In the case of `Cc1cc2c(c(O)c1C(=O)O)C(=O)c1c(O)cc(O)c(O)c1C2=O`, the Activity (HepG2 [4]) is reported as “inactive”.

In the case of `COC(=O)[C@]12Oc3ccc(-c4ccc5c(c4O)C(=O)C4=C(O)C[C@@H](C)[C@H](O)[C@@]4(C(=O)OC)O5)c(O)c3C(=O)C1=C(O)C[C@@H](C)[C@@H]2O` [SECALONIC ACID A], the inhibition [2] is reported as 100%, the inhibition [3] is reported as “Dose-dependent effect” and the IC50 (HepG2 [1]) is reported as 900 nM. It also gave an IC50 (CCF-STTG1) of 1000 nM and an inhibition [5] of 100%.

In the case of `C[C@@H]1C[C@@]2(O)OC(=O)[C@@]3(Oc4ccc(-c5ccc6c(c5O)C(=O)C5(O)[C@@]7(O)C[C@@H](C)[C@H](O)[C@]5(O6)C(=O)O7)c(O)c4C(=O)C23O)[C@H]1O` (stereo partly specified), the Activity (HepG2 [6]) is reported as 3%, the inhibition [2] is reported as “inactive” and the inhibition [3] is reported as “inactive”. It also gave an IC50 (HepG2 [1]) of 59900 nM and an IC50 (CCF-STTG1) of 2300 nM.

For `COC(=O)[C@]12Oc3ccc(-c4ccc5c(c4O)C(=O)C4(O)C(=O)C[C@@H](C)[C@H](O)[C@@]4(C(=O)OC)O5)c(O)c3C(=O)C1(O)C(=O)C[C@@H](C)[C@@H]2O` (stereo partly specified), the IC50 (HepG2 [1]) was 53600 nM and the IC50 (CCF-STTG1) was 13400 nM.
